Data reported in article PMC12808100, “The non-catalytic DNA polymerase ε subunit is an NPF motif recognition protein” (Nature Communications, 2025).
Residues, ends and D or L forms follow the SMILES beside them.

Key:
HA-MBP-POLE2 = target: T1, HA-MBP-POLE2 (Homo sapiens, UniProt P56282); experiment: Titration nHU, Western blot, HA-MBP-POLE2 in 293T cell extract; type: binding; details: MBP-tagged POLE2, depending on the experimental setup, authors' rebuttal; read-out: dissociation constants
T1 construct: POLE2: UniProt ID P56282, residues 1-527; expressed in transfected cells; host or cells: HEK293T
Excerpt: (§1) To identify the partners of NPF motifs, we used the native holdup (nHU) assay that was recently developed by our team (Fig. 1B). The holdup approach has been extensively used to determine equilibrium dissociation constants of transient interactions mediated by PDZ and SH3 domains, 14-3-3, and human papilloma virus E6 proteins, and even nucleic acid-protein interactions[7],[30]–[35]. In the nHU experiments, a purified bait molecule, or a control compound, is immobilized on a resin at high concentration (typically 10 μM, or higher) and these resin stocks are subsequently mixed with dilute cell extracts. […] This liquid phase contains the unbound prey molecules at near binding equilibrium that can be quantified using selective and quantitative analytical approaches, such as mass spectrometry. Therefore, proteins that interact with the bait molecule will appear to be depleted in the solvent phase and by measuring its relative concentration compared to the control nHU experiment, the degree of binding (θ) can be determined that can be converted to apparent steady-state dissociation constants, according to:1 θ=1−Ifree/Itot=Cbait/Cbait+Kapp where Itot and Ifree are the measured total and bait-depleted equilibrium mass spectrometry total ion intensities of prey proteins, Cbait is the bait molecule concentration and Kapp is the apparent dissociation constant. […]

CD2AP = CD2AP (Homo sapiens, UniProt Q9Y5K6); experiment: nHU-MS peptide bait, prey CD2AP
EPS15 = target: T2, EPS15 (Homo sapiens, UniProt P42566); experiment: Titration nHU, Western blot, endogenous EPS15 in Jurkat extract; type: binding; details: source data of Fig 5, titration nHU, unit inferred
T2 construct: endogenous in cells; host or cells: Jurkat E6.1
T2 sequence (P42566 1-896): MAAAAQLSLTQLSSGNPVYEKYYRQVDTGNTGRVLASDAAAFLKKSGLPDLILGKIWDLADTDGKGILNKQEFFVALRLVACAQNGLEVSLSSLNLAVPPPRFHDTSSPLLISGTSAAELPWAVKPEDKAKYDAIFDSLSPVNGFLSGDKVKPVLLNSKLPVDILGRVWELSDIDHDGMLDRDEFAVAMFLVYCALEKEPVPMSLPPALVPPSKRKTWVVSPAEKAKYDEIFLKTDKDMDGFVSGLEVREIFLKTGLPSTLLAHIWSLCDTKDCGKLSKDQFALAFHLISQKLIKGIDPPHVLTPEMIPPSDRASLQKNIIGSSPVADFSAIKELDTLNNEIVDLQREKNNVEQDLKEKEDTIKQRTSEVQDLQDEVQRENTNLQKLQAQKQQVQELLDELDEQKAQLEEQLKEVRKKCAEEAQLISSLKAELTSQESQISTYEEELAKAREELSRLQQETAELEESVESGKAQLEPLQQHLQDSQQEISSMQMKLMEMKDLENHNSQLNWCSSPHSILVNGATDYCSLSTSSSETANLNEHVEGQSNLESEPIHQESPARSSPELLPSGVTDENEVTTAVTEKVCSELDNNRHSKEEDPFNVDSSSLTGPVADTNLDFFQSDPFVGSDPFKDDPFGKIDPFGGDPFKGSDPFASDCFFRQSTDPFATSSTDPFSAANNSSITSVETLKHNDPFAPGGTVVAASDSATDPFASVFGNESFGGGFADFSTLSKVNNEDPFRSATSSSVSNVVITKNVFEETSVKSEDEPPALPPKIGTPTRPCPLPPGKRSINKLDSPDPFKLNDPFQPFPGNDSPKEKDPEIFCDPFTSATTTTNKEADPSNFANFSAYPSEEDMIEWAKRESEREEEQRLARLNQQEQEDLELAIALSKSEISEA
Excerpt: To identify the partners of NPF motifs, we used the native holdup (nHU) assay that was recently developed by our team (Fig. 1B). The holdup approach has been extensively used to determine equilibrium dissociation constants of transient interactions mediated by PDZ and SH3 domains, 14-3-3, and human papilloma virus E6 proteins, and even nucleic acid-protein interactions[7],[30]–[35]. In the nHU experiments, a purified bait molecule, or a control compound, is immobilized on a resin at high concentration (typically 10 μM, or higher) and these resin stocks are subsequently mixed with dilute cell extracts. After a relatively long incubation, i.e., 2 h at 4 °C, the liquid phase is separated by centrifugation. This liquid phase contains the unbound prey molecules at near binding equilibrium that can be quantified using selective and quantitative analytical approaches, such as mass spectrometry. Therefore, proteins that interact with the bait molecule will appear to be depleted in the solvent phase and by measuring its relative concentration compared to the control nHU experiment, the degree of binding (θ) can be determined that can be converted to apparent steady-state dissociation constants, according to:1 θ=1−Ifree/Itot=Cbait/Cbait+Kapp where Itot and Ifree are the measured total and bait-depleted equilibrium mass spectrometry total ion intensities of prey proteins, Cbait is the bait molecule concentration and Kapp is the apparent dissociation constant.
Jurkat E6.1 cells (ECACC #88042803, RRID: CVCL_0367) were grown in RPMI (Gibco) medium completed with 10% FBS (Gibco BRL) and 40 μg/ml gentamicin (Gibco/Life Technology). To prepare total cell extracts, Jurkat cells were seeded onto T-175 flasks and grew until 3 × 10^6 cells/ml confluency. Cells were collected by 1000 g x 5 min centrifugation, washed with PBS and then lysed in ice-cold lysis buffer (Hepes-KOH pH 7.5 50 mM, NaCl 150 mM, Triton X-100 1%, cOmplete EDTA-free protease inhibitor cocktail 5x, TCEP 5 mM, glycerol 10%).
Cell suspensions were sonicated 4×20 sec with 1 sec long pulse on ice, then incubated rotating at 4 °C for 30 min. The lysates were centrifuged at 12,000 rpm 4 °C for 20 min and supernatant was kept. Total protein concentration was measured by standard Bradford method (Bio-Rad Protein Assay Dye Reagent #5000006) using a BSA calibration curve (MP Biomedicals #160069, diluted in lysis buffer) on a Bio-Rad SmartSpec 3000 spectrophotometer instrument.
Titration holdup experiments were carried out as described above using 25 μl saturated resins prepared. Briefly, we mixed control, or bait-saturated resins at various proportions by keeping the total resin amount and resin-analyte ratio constant during the experiment (for 25 μl we used 100 μl cell extract as analyte). In titration experiments with protein baits, bait concentration was determined as described above for the saturated resin stocks. Experiments were carried out at 4 °C for 2 h and recovered supernatants were subjected to western blot or dot blot analysis.
For Western blot, samples were mixed with 4x Laemmli Sample Buffer in 3:1 ratio. Equal amounts of samples were loaded on 6-10% acrylamide-gels (generally 16 μg). Transfer was done into PVDF membranes using a Trans-Blot Turbo Transfer System and Trans-Blot Turbo RTA Transfer Kit (BioRad, #1704275). For Dot blot, nHU samples were directly loaded on Nitrocellulose membranes using 48 Sample vacuum manifold (Cleaver Scientific) following the manufacturer’s recommendations. […]

RFT1 = RFT1 (Homo sapiens, UniProt Q96AA3); experiment: nHU-MS peptide bait, prey RFT1
GTPBP4 = GTPBP4 (Homo sapiens, UniProt Q9BZE4); experiment: nHU-MS peptide bait, prey GTPBP4
HP1BP3 = HP1BP3 (Homo sapiens, UniProt Q5SSJ5); experiment: nHU-MS peptide bait, prey HP1BP3
DDX18 = DDX18 (Homo sapiens, UniProt Q9NVP1); experiment: nHU-MS peptide bait, prey DDX18
HA-POLE2 = target: T3, HA-POLE2 (Homo sapiens, UniProt P56282); experiment: Titration nHU, Western blot, HA-POLE2 in 293T cell extract; type: binding; details: HA-tagged POLE2, range over assays, authors' rebuttal; read-out: dissociation constant
T3 construct: POLE2: UniProt ID P56282, residues 1-527; expressed in transfected cells; host or cells: HEK293T
Excerpt: as §1

CD2AP, sequence (Q9Y5K6 whole entry): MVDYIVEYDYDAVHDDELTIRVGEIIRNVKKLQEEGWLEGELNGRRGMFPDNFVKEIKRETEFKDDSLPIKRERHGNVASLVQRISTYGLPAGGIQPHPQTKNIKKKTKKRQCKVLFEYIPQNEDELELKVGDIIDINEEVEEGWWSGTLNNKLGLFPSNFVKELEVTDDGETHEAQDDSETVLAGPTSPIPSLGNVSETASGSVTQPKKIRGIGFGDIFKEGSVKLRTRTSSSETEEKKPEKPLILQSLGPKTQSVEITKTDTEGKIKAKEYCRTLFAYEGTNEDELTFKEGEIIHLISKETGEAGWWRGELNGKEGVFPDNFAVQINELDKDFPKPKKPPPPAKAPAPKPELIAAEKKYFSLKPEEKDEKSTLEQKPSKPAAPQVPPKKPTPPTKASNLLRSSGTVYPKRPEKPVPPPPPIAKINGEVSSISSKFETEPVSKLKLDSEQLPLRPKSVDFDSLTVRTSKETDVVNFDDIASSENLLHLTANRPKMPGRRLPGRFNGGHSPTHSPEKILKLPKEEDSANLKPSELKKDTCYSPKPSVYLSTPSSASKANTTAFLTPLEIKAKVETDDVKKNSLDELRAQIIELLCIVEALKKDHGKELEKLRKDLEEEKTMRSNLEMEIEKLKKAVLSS
RFT1, sequence (Q96AA3 whole entry): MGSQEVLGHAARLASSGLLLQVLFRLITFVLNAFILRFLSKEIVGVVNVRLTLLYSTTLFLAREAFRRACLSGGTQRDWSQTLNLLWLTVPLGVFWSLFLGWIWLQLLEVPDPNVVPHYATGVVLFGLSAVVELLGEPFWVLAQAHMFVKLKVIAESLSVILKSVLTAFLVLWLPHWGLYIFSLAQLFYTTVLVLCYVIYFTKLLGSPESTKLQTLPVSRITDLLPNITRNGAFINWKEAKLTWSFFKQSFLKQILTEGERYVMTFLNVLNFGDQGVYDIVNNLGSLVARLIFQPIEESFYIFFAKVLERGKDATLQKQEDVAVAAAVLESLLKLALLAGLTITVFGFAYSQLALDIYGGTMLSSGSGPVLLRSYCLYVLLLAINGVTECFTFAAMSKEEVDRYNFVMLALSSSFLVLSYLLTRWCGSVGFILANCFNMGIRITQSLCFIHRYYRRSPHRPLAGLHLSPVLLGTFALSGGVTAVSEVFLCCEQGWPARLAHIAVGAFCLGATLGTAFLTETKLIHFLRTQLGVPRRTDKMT
DDX18, sequence (Q9NVP1 whole entry): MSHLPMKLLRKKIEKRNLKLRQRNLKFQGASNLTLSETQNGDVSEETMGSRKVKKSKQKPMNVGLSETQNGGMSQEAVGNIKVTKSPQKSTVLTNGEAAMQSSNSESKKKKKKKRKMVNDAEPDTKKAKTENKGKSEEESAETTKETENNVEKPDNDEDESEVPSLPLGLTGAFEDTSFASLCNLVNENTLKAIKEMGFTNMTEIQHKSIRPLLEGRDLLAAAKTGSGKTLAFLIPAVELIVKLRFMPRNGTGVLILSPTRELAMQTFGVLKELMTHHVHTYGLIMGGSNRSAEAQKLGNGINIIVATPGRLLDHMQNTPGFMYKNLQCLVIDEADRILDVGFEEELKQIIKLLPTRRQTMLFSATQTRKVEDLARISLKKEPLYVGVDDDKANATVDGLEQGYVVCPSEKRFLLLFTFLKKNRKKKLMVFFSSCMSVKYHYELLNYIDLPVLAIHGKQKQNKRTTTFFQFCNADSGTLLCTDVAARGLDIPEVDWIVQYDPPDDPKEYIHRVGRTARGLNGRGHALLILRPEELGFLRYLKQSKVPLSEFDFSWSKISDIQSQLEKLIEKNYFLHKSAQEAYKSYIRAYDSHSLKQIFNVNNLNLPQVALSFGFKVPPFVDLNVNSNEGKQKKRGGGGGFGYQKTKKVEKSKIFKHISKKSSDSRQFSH
HP1BP3, sequence (Q5SSJ5 whole entry): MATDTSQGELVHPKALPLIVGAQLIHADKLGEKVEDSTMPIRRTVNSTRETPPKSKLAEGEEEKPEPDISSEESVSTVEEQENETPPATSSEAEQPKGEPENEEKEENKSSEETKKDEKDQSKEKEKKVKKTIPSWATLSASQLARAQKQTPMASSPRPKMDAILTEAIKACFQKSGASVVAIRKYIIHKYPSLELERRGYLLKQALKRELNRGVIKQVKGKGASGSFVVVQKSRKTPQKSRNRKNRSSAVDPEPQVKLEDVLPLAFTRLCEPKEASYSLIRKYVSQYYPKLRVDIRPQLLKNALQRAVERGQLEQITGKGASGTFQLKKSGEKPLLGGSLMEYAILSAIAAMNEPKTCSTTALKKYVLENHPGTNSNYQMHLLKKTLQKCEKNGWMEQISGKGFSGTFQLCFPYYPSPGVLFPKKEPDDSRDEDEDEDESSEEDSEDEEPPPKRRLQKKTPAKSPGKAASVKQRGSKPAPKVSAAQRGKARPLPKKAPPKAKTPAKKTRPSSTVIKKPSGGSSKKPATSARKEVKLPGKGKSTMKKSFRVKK
T3 sequence (P56282 whole entry, the tested form may be a part): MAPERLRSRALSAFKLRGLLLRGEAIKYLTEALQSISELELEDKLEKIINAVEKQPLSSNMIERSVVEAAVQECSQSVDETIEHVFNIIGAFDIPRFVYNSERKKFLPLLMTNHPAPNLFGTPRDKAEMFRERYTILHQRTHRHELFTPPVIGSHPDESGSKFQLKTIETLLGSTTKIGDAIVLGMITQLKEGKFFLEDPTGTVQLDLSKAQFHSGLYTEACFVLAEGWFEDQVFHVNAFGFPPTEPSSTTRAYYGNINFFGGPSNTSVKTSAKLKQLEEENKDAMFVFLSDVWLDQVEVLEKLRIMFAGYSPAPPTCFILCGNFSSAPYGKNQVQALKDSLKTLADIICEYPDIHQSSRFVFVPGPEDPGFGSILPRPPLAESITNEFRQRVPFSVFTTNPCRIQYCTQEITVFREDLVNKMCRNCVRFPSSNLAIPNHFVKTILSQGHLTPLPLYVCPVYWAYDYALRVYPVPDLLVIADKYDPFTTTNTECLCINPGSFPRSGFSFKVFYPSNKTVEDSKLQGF
T1 sequence (P56282 whole entry, the tested form may be a part): as above

CC(C)C[C@H](NC(=O)[C@H](CCCNC(=N)N)NC(=O)[C@H](C)NC(=O)[C@H](Cc1ccccc1)NC(=O)[C@@H]1CCCN1C(=O)[C@H](CC(N)=O)NC(=O)[C@H](CCCNC(=N)N)NC(=O)[C@H](CCCNC(=N)N)NC(=O)[C@H](C)NC(=O)[C@H](C)NC(=O)[C@H](C)NC(=O)[C@@H]1CCCN1C(=O)CN)C(=O)N[C@@H](CC(=O)O)C(=O)N[C@@H](CC(N)=O)C(=O)N[C@@H](CCCNC(=N)N)C(=O)N1CCC[C@H]1C(=O)N[C@@H](CCCNC(=N)N)C(N)=O [DONSON_71-88] (H-GPAAARRNPFARLDNRPR-NH2)
Kd (HA-MBP-POLE2): 1 to 10 µM
Kd (CD2AP): 18.8 µM
BI (CD2AP; prey CD2AP, MS7_Varjosalo): 0.3476
Kd (EPS15): > 60 µM
Kd (RFT1): 24.2 µM
BI (RFT1; prey RFT1, MS7_Varjosalo): 0.292
Kd (GTPBP4): 29.7 µM
BI (GTPBP4; prey GTPBP4, MS2_Varjosalo): 0.252
Kd (HP1BP3): 31.2 µM
BI (HP1BP3; prey HP1BP3, MS2_Varjosalo): 0.2425
Kd (DDX18): 29.5 µM
BI (DDX18; prey DDX18, MS2_Varjosalo): 0.2529
Kd (HA-POLE2): 0.3 to 0.5 µM
